Data: PMC12664123, “Exploring Nirmatrelvir Derivatives Through P2 Substituent Modifications and Warhead Innovations Targeting the Main Protease of SARS‐CoV‐2” (Archiv Der Pharmazie, 2025)

Key:
WT SARS-CoV-2 Mpro = WT SARS-CoV-2 Mpro (Severe acute respiratory syndrome coronavirus 2, UniProt P0DTD1); assay: Jump-dilution assay for reversibility of inhibition; assay type: biochemical; details: for mechanism of inhibition (reversibility): incubated 30 min at 100 nM M^pro and 200 nM inhibitor, 10-fold dilution, followed 30 min; for residual enzyme activity after jump dilution: 10-fold dilution to 10 nM M^pro, 20 nM inhibitor
[1] = Metabolic stability against liver microsomes, loss of parent compound by HPLC-UV; details: 37°C; for remaining parent compound after 480 min: rat liver microsomes 0.2 mg/mL, NADPH, 100 µM compound, 480 min (8 h); for metabolic stability toward liver microsomes (in words): rat liver microsomes, up to 480 min
SARS-CoV-2 M^pro [2] = biological target: T1, SARS-CoV-2 M^pro (Severe acute respiratory syndrome coronavirus 2, UniProt P0DTD1); assay: Determination of the inhibition constants (Ki) for SARS-CoV-2 Mpro, Morrison equation, QS1 fluorogenic substrate; assay type: biochemical; details: for Ki / Biological Activity (pKi): M^pro 25 nM, QS1 20 µM; for Ki: 30 min preincubation at 37°C, pH 7.2; for Biological Activity (pKi): supplement table, 30 min preincubation at 37 °C; for fold more potent than compound 22 / ΔpK i relative to oxime analog 22: warhead exchange, vs compound 22
SARS-CoV-2 M^pro [3] = biological target: T1, SARS-CoV-2 M^pro; assay: Determination of Kinact/KI for time-dependent (irreversible) inhibitors, progress curves; assay type: biochemical; details: for kinact/KI: read-out: Kinact/KI (supplement table)

Structure (SMILES) | Ki (SARS-CoV-2 M^pro [2]) | Biological Activity (pKi) (SARS-CoV-2 M^pro [2]) | other results
CO[C@@H]1C[C@@H](C(=O)N[C@H](C=NO)C[C@@H]2CCNC2=O)N(C(=O)[C@@H](NC(=O)C(F)(F)F)C(C)(C)C)C1 [Compound 22, (2S,4R)−1‐{(S)−3,3‐Dimethyl‐2‐(2,2,2‐Trifluoroacetamido)butanoyl}‐N‐[(S)−1‐(Hydroxyimino)−3‐[(S)−2‐Oxopyrrolidin‐3‐yl]Propan‐2‐yl]−4‐Methoxypyrrolidine‐2‐Carboxamide] | 158 nM | 6.8 ± 0.01 | mechanism of inhibition (reversibility) (WT SARS-CoV-2 Mpro): reversible; remaining parent compound after 480 min [1]: ca. 60%
CC(C)(C)[C@H](NC(=O)C(F)(F)F)C(=O)N1C[C@H](c2ccccc2)C[C@H]1C(=O)N[C@H](C=NO)C[C@@H]1CCNC1=O [Compound 23, (2S,4S)−1‐{(S)−3,3‐Dimethyl‐2‐(2,2,2‐Trifluoroacetamido)Butanoyl}‐N‐[(S)−1‐(Hydroxyimino)−3‐[(S)−2‐Oxopyrrolidin‐3‐yl]Propan‐2‐yl]−4‐Phenylpyrrolidine‐2‐Carboxamide] | 50.1 nM | 7.3 ± 0.01 | 
C=CCO[C@@H]1C[C@@H](C(=O)N[C@H](C=NO)C[C@@H]2CCNC2=O)N(C(=O)[C@@H](NC(=O)C(F)(F)F)C(C)(C)C)C1 [Compound 24, (2S,4R)−4‐(Allyloxy)−1‐{(S)−3,3‐Dimethyl‐2‐(2,2,2‐Trifluoroacetamido)Butanoyl}‐N‐[(S)−1‐(Hydroxyimino)−3‐[(S)−2‐Oxopyrrolidin‐3‐yl]Propan‐2‐yl]Pyrrolidine‐2‐Carboxamide] | 50.1 nM | 7.3 ± 0.08 | 
C#CCO[C@@H]1C[C@@H](C(=O)N[C@H](C=NO)C[C@@H]2CCNC2=O)N(C(=O)[C@@H](NC(=O)C(F)(F)F)C(C)(C)C)C1 [Compound 25, (2S,4R)−1‐{(S)−3,3‐Dimethyl‐2‐(2,2,2‐Trifluoroacetamido)Butanoyl}‐N‐[(S)−1‐(Hydroxyimino)−3‐[(S)−2‐Oxopyrrolidin‐3‐yl]Propan‐2‐yl]−4‐(Prop‐2‐yn‐1‐Yloxy)Pyrrolidine‐2‐Carboxamide] | 31.6 nM | 7.5 ± 0.04 | 
CCO[C@@H]1C[C@@H](C(=O)N[C@H](C=NO)C[C@@H]2CCNC2=O)N(C(=O)[C@@H](NC(=O)C(F)(F)F)C(C)(C)C)C1 [Compound 26, (2S,4R)−1‐{(S)−3,3‐Dimethyl‐2‐(2,2,2‐Trifluoroacetamido)Butanoyl}−4‐Ethoxy‐N‐[(S)−1‐(Hydroxyimino)−3‐[(S)−2‐Oxopyrrolidin‐3‐yl]Propan‐2‐yl]Pyrrolidine‐2‐Carboxamide] | 100 nM | 7.0 ± 0.02 | 
CC(C)(C)[C@H](NC(=O)C(F)(F)F)C(=O)N1C[C@H](C2CCCCC2)C[C@H]1C(=O)N[C@H](C=NO)C[C@@H]1CCNC1=O [Compound 27, (2S,4S)−4‐Cyclohexyl‐1‐{(S)−3,3‐Dimethyl‐2‐(2,2,2‐Trifluoroacetamido)Butanoyl}‐N‐[(S)−1‐(Hydroxyimino)−3‐[(S)−2‐Oxopyrrolidin‐3‐yl]Propan‐2‐yl]Pyrrolidine‐2‐Carboxamide] | 100 nM | 7.0 ± 0.02 | 
CC(=O)N[C@@H]1C[C@@H](C(=O)N[C@H](C=NO)C[C@@H]2CCNC2=O)N(C(=O)[C@@H](NC(=O)C(F)(F)F)C(C)(C)C)C1 [Compound 28, (2S,4R)−4‐Acetamido‐1‐{(S)−3,3‐Dimethyl‐2‐(2,2,2‐Trifluoroacetamido)Butanoyl}‐N‐[(S)−1‐(Hydroxyimino)−3‐[(S)−2‐Oxopyrrolidin‐3‐yl]Propan‐2‐yl]Pyrrolidine‐2‐Carboxamide] | 100 nM | 7.0 ± 0.03 | 
CC(C)(C)[C@H](NC(=O)C(F)(F)F)C(=O)N1C[C@H](OCc2ccccc2)C[C@H]1C(=O)N[C@H](C=NO)C[C@@H]1CCNC1=O [Compound 29, (2S,4R)−4‐(Benzyloxy)−1‐{(S)−3,3‐Dimethyl‐2‐(2,2,2‐Trifluoroacetamido)Butanoyl}‐N‐[(S)−1‐(Hydroxyimino)−3‐[(S)−2‐Oxopyrrolidin‐3‐yl]Propan‐2‐yl]Pyrrolidine‐2‐Carboxamide] | 200 nM | 6.7 ± 0.02 | 
CO[C@@H]1C[C@@H](C(=O)N[C@H](/C=C(\F)S(=O)(=O)c2ccccc2)C[C@@H]2CCNC2=O)N(C(=O)[C@@H](NC(=O)C(F)(F)F)C(C)(C)C)C1 [Compound 30, (2S,4R)−1‐{(S)−3,3‐Dimethyl‐2‐(2,2,2‐Trifluoroacetamido)Butanoyl}‐N‐[(S,E)−4‐Fluoro‐1‐((S)−2‐Oxopyrrolidin‐3‐yl)−4‐(Phenylsulfonyl)but‐3‐en‐2‐yl]−4‐Methoxypyrrolidine‐2‐Carboxamide] | 7.94 nM | 8.1 ± 0.01 | mechanism of inhibition (reversibility) (WT SARS-CoV-2 Mpro): reversible; remaining parent compound after 480 min [1]: ~100%; fold more potent than compound 22 (SARS-CoV-2 M^pro [2]): ~20 fold; ΔpK i relative to oxime analog 22 (SARS-CoV-2 M^pro [2]): 1.3
CO[C@@H]1C[C@@H](C(=O)N[C@H](C#N)C[C@@H]2CCNC2=O)N(C(=O)[C@@H](NC(=O)C(F)(F)F)C(C)(C)C)C1 [Compound 31, (2S,4R)‐N‐[(S)−1‐Cyano‐2‐[(S)−2‐Oxopyrrolidin‐3‐yl]Ethyl]−1‐{(S)−3,3‐Dimethyl‐2‐(2,2,2‐Trifluoroacetamido)Butanoyl}−4‐Methoxypyrrolidine‐2‐Carboxamide] | 1.58 nM | 8.8 ± 0.01 | remaining parent compound after 480 min [1]: ~100%; fold more potent than compound 22 (SARS-CoV-2 M^pro [2]): 100 fold; ΔpK i relative to oxime analog 22 (SARS-CoV-2 M^pro [2]): 2.0
CO[C@@H]1C[C@@H](C(=O)N[C@H](/C=C/S(=O)(=O)c2ccccc2)C[C@@H]2CCNC2=O)N(C(=O)[C@@H](NC(=O)C(F)(F)F)C(C)(C)C)C1 [Compound 32, (2S,4R)−1‐{(S)−3,3‐Dimethyl‐2‐(2,2,2‐Trifluoroacetamido)butanoyl}−4‐Methoxy‐N‐[(S,E)−1‐((S)−2‐Oxopyrrolidin‐3‐yl)−4‐(Phenylsulfonyl)but‐3‐en‐2‐yl]Pyrrolidine‐2‐Carboxamide] |  |  | residual enzyme activity after jump dilution (WT SARS-CoV-2 Mpro): very low residual enzyme activity; mechanism of inhibition (reversibility) (WT SARS-CoV-2 Mpro): irreversible; kinact/KI (SARS-CoV-2 M^pro [3]): 4400 M⁻¹ s⁻¹
COc1ccc(C(=O)ON=C[C@H](C[C@@H]2CCNC2=O)NC(=O)[C@@H]2C[C@@H](OC)CN2C(=O)[C@@H](NC(=O)C(F)(F)F)C(C)(C)C)cc1 [Compound 33, (2S,4R)−1‐{(S)−3,3‐Dimethyl‐2‐(2,2,2‐Trifluoroacetamido)Butanoyl}−4‐Methoxy‐N‐[(S)−1‐[((4‐Methoxybenzoyl)Oxy)Imino]−3‐[(S)−2‐Oxopyrrolidin‐3‐yl]Propan‐2‐yl]Pyrrolidine‐2‐Carboxamide] |  |  | residual enzyme activity after jump dilution (WT SARS-CoV-2 Mpro): very low residual enzyme activity; mechanism of inhibition (reversibility) (WT SARS-CoV-2 Mpro): irreversible; fold higher reactivity than the vinyl sulfone (32) (SARS-CoV-2 M^pro [3]; Kinact/KI of 33 vs 32): ~20 fold; kinact/KI (SARS-CoV-2 M^pro [3]): 77000 M⁻¹ s⁻¹; metabolic stability toward liver microsomes (in words) [1]: readily degraded
CC(C)(C)[C@H](NC(=O)C(F)(F)F)C(=O)N1C[C@H](c2ccccc2)C[C@H]1C(=O)N[C@H](C#N)C[C@@H]1CCNC1=O [Compound 34, (2S,4S)‐N‐[(S)−1‐Cyano‐2‐[(S)−2‐Oxopyrrolidin‐3‐yl]Ethyl]−1‐{(S)−3,3‐Dimethyl‐2‐(2,2,2‐Trifluoroacetamido)Butanoyl}−4‐Phenylpyrrolidine‐2‐Carboxamide] | 1.26 nM | 8.9 ± 0.01 | metabolic stability toward liver microsomes (in words) [1]: comparable stability to the initial prototype 22
CC(C)(C)[C@H](NC(=O)C(F)(F)F)C(=O)N1C[C@H]2[C@@H]([C@H]1C(=O)N[C@H](C#N)C[C@@H]1CCNC1=O)C2(C)C [nirmatrelvir] |  |  | remaining parent compound after 480 min [1]: ca. 80%
C[C@]12CC[C@H]3[C@@H](CCC4=CC(=O)CC[C@@]43C)[C@@H]1CC[C@@H]2O [testosterone, reference compound] |  |  | metabolic stability toward liver microsomes (in words) [1]: readily degraded
